This is an account of results in ChEMBL document CHEMBL4334509, “Garcinol and Related Polyisoprenylated Benzophenones as Topoisomerase II Inhibitors: Biochemical and Molecular Modeling Studies” (J Nat Prod, 2019).

The target in data set [1] is T1, DNA topoisomerase 2-alpha (Homo sapiens, UniProt P11388). The data set is described as follows: Mixed-type inhibition of topoisomerase 2alpha ATPase activity (unknown origin) assessed as apparent Vmax per mg protein at 50 uM using salmon sperm DNA as substrate measured every 30 secs for 90 mins in presence of ATP by pyruvate kinase/lactate dehydrogenase enzyme coupled assay (reference value: 136.7 +/- 14.7 mM/min).

Data set [2] addresses T2, DNA topoisomerase 2-beta (Homo sapiens, UniProt Q02880). The data set is described as follows: Inhibition of human topoisomerase 2beta-mediated relaxation of supercoiled pSG483 DNA after 30 mins by ethidium bromide staining based agarose gel electrophoresis method.
For data set [3], the target named is T1, DNA topoisomerase 2-alpha. As to the kind of experiment: Mixed-type inhibition of topoisomerase 2alpha ATPase activity (unknown origin) assessed as apparent Vmax per mg protein at 25 uM using salmon sperm DNA as substrate measured every 30 secs for 90 mins in presence of ATP by pyruvate kinase/lactate dehydrogenase enzyme coupled assay (reference value: 136.7 +/- 14.7 mM/min).

Data set [4] deals with T1, DNA topoisomerase 2-alpha. The data set is described as follows: Inhibition of human topoisomerase 2alpha-mediated relaxation of supercoiled pSG483 DNA after 30 mins by ethidium bromide staining based agarose gel electrophoresis method.
For data set [5], the target named is T1, DNA topoisomerase 2-alpha. The data set is described as follows: Poison activity at human topoisomerase 2alpha assessed as linear DNA formation at 12.5 to 200 uM after 30 mins by ethidium bromide staining based agarose gel electrophoresis method.
For a further data set, the system named is DNA. As to the kind of experiment: Induction of plasmid DNA (unknown origin) intercalation at 7.81 to 500 uM after 30 mins by ethidium bromide staining based agarose gel electrophoresis method. The class given is nucleic-acid assay.
For data set [6], the target named is T2, DNA topoisomerase 2-beta. The data set is described as follows: Inhibition of human topoisomerase 2beta-mediated DNA cleavage at 12.5 to 200 uM using supercoiled pSG483 as substrate after 30 mins by ethidium bromide staining based gel electrophoresis method.
In data set [7] the target is T1, DNA topoisomerase 2-alpha. The data set is described as follows: Inhibition of human topoisomerase 2alpha-mediated relaxation of supercoiled pSG483 DNA at 12.5 to 200 uM after 30 mins by ethidium bromide staining based agarose gel electrophoresis method.
The target of data set [8] is T1, DNA topoisomerase 2-alpha. As to the kind of experiment: Mixed-type inhibition of topoisomerase 2alpha ATPase activity (unknown origin) assessed as apparent Vmax per mg protein at 20 uM using salmon sperm DNA as substrate measured every 30 secs for 90 mins in presence of ATP by pyruvate kinase/lactate dehydrogenase enzyme coupled assay (reference value: 136.7 +/- 14.7 mM/min).

The target of data set [9] is T1, DNA topoisomerase 2-alpha. As to the kind of experiment: Inhibition of human topoisomerase 2alpha-mediated DNA cleavage at 12.5 to 200 uM using supercoiled pSG483 as substrate after 30 mins by ethidium bromide staining based gel electrophoresis method.
Data set [10] deals with T2, DNA topoisomerase 2-beta. As to the kind of experiment: Inhibition of human topoisomerase 2beta-mediated relaxation of supercoiled pSG483 DNA at 12.5 to 200 uM after 30 mins by ethidium bromide staining based agarose gel electrophoresis method.
In data set [11] the target is T2, DNA topoisomerase 2-beta. As to the kind of experiment: Inhibition of human topoisomerase 2beta-mediated DNA cleavage assessed as formation of nicking in DNA at 200 uM using supercoiled pSG483 as substrate after 30 mins by ethidium bromide based gel electrophoresis method.
Compound in data set [12]: C=C(C)[C@H](CC=C(C)C)C[C@]12C[C@H](CC=C(C)C)C(C)(C)[C@](CC=C(C)C)(C(=O)C(C(=O)c3ccc(O)c(O)c3)=C1O)C2=O
As to the kind of experiment: Mixed-type inhibition of topoisomerase 2alpha ATPase activity (unknown origin) assessed as apparent Km at 50 uM using salmon sperm DNA as substrate measured every 30 secs for 90 mins in presence of ATP by pyruvate kinase/lactate dehydrogenase enzyme coupled assay (reference value: 0.4 +/- 0.1 mM). Particulars: Homo sapiens.

Compound in data set [13]: C=C(C)[C@H](CC=C(C)C)C[C@]12C[C@H](CC=C(C)C)C(C)(C)[C@](CC=C(C)C)(C(=O)C(C(=O)c3ccc(O)c(O)c3)=C1O)C2=O
The data set is described as follows: (§1) Mixed-type inhibition of topoisomerase 2alpha ATPase activity (unknown origin) assessed as apparent Km at 10 uM using salmon sperm DNA as substrate measured every 30 secs for 90 mins in presence of ATP by pyruvate kinase/lactate dehydrogenase enzyme coupled assay (reference value: 0.4 +/- 0.1 mM). Particulars: Homo sapiens.

Compound in data set [14]: CC(C)=CCC[C@@]1(C)[C@H](CC=C(C)C)C[C@]2(CC=C(C)C)C(=O)[C@@]1(CC=C(C)C)C(=O)C(C(=O)c1ccc(O)c(O)c1)=C2O
The data set is described as §1. Particulars: Homo sapiens.

Compound in data set [15]: CC(C)=CCC/C(C)=C/C[C@@]12C[C@H](CC=C(C)C)C(C)(C)[C@@](CC=C(C)C)(C(=O)C(C(=O)c3ccc(O)c(O)c3)=C1O)C2=O
Described as §1. Particulars: Homo sapiens.

Compound in data set [16]: CC(C)=CCC[C@@]1(C)[C@H](CC=C(C)C)C[C@]2(CC=C(C)C)C(=O)[C@@]1(CC=C(C)C)C(=O)C(C(=O)c1ccc(O)c(O)c1)=C2O
The data set is described as follows: (§2) Mixed-type inhibition of topoisomerase 2alpha ATPase activity (unknown origin) assessed as apparent Km at 5 uM using salmon sperm DNA as substrate measured every 30 secs for 90 mins in presence of ATP by pyruvate kinase/lactate dehydrogenase enzyme coupled assay (reference value: 0.4 +/- 0.1 mM). Particulars: Homo sapiens.

Compound in data set [17]: CC(C)=CCC/C(C)=C/C[C@@]12C[C@H](CC=C(C)C)C(C)(C)[C@@](CC=C(C)C)(C(=O)C(C(=O)c3ccc(O)c(O)c3)=C1O)C2=O
The description is as §2. Particulars: Homo sapiens.

Compound in data set [18]: C=C(C)[C@H](CC=C(C)C)C[C@]12C[C@H](CC=C(C)C)C(C)(C)[C@](CC=C(C)C)(C(=O)C(C(=O)c3ccc(O)c(O)c3)=C1O)C2=O
The data set is described as follows: (§3) Mixed-type inhibition of topoisomerase 2alpha ATPase activity (unknown origin) assessed as apparent Km at 25 uM using salmon sperm DNA as substrate measured every 30 secs for 90 mins in presence of ATP by pyruvate kinase/lactate dehydrogenase enzyme coupled assay (reference value: 0.4 +/- 0.1 mM). Particulars: Homo sapiens.

Compound in data set [19]: CC(C)=CCC[C@@]1(C)[C@H](CC=C(C)C)C[C@]2(CC=C(C)C)C(=O)[C@@]1(CC=C(C)C)C(=O)C(C(=O)c1ccc(O)c(O)c1)=C2O
The description is as §3. Particulars: Homo sapiens.

Compound in data set [20]: CC(C)=CCC/C(C)=C/C[C@@]12C[C@H](CC=C(C)C)C(C)(C)[C@@](CC=C(C)C)(C(=O)C(C(=O)c3ccc(O)c(O)c3)=C1O)C2=O
The data set is described as follows: Mixed-type inhibition of topoisomerase 2alpha ATPase activity (unknown origin) assessed as apparent Km at 20 uM using salmon sperm DNA as substrate measured every 30 secs for 90 mins in presence of ATP by pyruvate kinase/lactate dehydrogenase enzyme coupled assay (reference value: 0.4 +/- 0.1 mM). Particulars: Homo sapiens.

Calls of active or inactive are those of the source. The rule behind the calls is not given here.

T2 sequence (Q02880 whole entry): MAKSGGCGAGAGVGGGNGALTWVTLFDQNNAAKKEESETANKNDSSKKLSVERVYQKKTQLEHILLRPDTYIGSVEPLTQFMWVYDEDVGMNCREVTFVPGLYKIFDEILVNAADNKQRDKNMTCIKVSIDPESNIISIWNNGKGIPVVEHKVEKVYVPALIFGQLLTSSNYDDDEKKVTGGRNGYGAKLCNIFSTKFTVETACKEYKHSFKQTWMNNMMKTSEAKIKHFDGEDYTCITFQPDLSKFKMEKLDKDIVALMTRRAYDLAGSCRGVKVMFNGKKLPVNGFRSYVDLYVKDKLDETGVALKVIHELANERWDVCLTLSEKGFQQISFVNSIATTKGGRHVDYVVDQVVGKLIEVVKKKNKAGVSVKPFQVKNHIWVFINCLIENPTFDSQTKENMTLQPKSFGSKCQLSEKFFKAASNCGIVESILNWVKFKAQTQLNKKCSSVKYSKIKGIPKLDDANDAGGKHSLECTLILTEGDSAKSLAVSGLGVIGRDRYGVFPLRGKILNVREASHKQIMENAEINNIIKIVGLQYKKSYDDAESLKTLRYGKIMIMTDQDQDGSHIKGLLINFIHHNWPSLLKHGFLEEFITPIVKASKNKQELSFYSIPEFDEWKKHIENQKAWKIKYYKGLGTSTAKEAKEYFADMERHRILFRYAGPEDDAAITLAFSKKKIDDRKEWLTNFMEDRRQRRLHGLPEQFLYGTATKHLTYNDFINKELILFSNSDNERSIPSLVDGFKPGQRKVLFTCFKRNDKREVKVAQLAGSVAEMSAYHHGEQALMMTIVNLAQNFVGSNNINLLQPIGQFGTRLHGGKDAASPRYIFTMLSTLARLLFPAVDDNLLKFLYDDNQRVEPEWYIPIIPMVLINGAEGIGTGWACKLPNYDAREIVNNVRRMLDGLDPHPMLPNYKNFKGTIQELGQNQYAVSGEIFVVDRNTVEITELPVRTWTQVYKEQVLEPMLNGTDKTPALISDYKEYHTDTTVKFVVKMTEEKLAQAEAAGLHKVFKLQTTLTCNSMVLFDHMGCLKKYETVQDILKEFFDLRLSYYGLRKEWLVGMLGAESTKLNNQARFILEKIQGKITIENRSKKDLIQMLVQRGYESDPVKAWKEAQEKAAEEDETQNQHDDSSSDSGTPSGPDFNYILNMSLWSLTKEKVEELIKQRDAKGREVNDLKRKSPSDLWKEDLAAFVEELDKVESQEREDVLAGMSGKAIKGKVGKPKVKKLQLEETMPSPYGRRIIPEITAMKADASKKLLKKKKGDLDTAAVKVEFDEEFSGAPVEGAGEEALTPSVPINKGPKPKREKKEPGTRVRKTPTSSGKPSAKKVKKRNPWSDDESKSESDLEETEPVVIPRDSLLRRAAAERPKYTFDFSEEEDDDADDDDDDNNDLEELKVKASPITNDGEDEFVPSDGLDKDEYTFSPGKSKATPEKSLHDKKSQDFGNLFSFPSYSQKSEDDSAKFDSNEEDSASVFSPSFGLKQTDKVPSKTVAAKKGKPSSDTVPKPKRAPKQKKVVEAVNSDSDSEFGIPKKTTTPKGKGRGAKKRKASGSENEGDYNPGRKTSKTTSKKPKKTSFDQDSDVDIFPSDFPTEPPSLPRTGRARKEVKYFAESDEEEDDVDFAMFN

What is called IC50 is the concentration that gives 50% inhibition. Read a low IC50 as greater potency in that assay. As for `C=C(C)[C@H](CC=C(C)C)C[C@]12C[C@H](CC=C(C)C)C(C)(C)[C@](CC=C(C)C)(C(=O)C(C(=O)c3ccc(O)c(O)c3)=C1O)C2=O`, the Vmax(app) in data set [1] was found to be 84.7 mM/min; in [3], 94 mM/min. In addition, the IC50 (against DNA topoisomerase 2-beta [2]; in data set [4]) was 101 µM throughout. The outcome (in data set [5]; with DNA) was inactive.
On to `CC(C)=CCC/C(C)=C/C[C@@]12C[C@H](CC=C(C)C)C(C)(C)[C@@](CC=C(C)C)(C(=O)C(C(=O)c3ccc(O)c(O)c3)=C1O)C2=O`, for which the inhibition result (on DNA topoisomerase 2-beta [6]; in [7]; in data set [9]; on DNA topoisomerase 2-beta [10]) was “Active” in each case. Besides, the Vmax(app) in data set [8] worked out at 53.6 mM/min.
With `CC(C)=CCC[C@@]1(C)[C@H](CC=C(C)C)C[C@]2(CC=C(C)C)C(=O)[C@@]1(CC=C(C)C)C(=O)c1c2oc2cc(O)c(O)cc2c1=O`, the inhibition result (on DNA topoisomerase 2-beta [6]; in data set [7]; in data set [9]; at DNA topoisomerase 2-beta [10]) was “Active” in each case.
Turning to `CC(C)=CCC[C@@]1(C)[C@H](CC=C(C)C)C[C@]2(CC=C(C)C)C(=O)[C@@]1(CC=C(C)C)C(=O)C(C(=O)c1ccc(O)c(O)c1)=C2O`, the inhibition result (at DNA topoisomerase 2-beta [6]; in data set [7]; in data set [9]; on DNA topoisomerase 2-beta [10]) was “Active” throughout. The Vmax(app) in data set [3] worked out at 93 mM/min.
As for `CC(C)=CCC/C(C)=C/C[C@]12C[C@H](CC=C(C)C)C(C)(C)[C@](CC=C(C)C)(C1=O)c1oc3cc(O)c(O)cc3c(=O)c1C2=O`, the inhibition entry (in [7]; on DNA topoisomerase 2-beta [10]) was “Active” each time. Also, the inhibition entry on DNA topoisomerase 2-beta [11] was “inactive”.
Regarding `CC(C)=CCC[C@@]1(C)[C@H](CC=C(C)C)C[C@@]2(CC=C(C)C)C(=O)c3c(oc4cc(O)c(O)cc4c3=O)[C@]1(CC=C(C)C)C2=O`, the inhibition result (at DNA topoisomerase 2-beta [6]; in data set [7]; in data set [9]; on DNA topoisomerase 2-beta [10]) was “Active” throughout.

B1: DNA topoisomerase 2-alpha (Homo sapiens), P11388 (protein)
chain: MEVSPLQPVNENMQVNKIKKNEDAKKRLSVERIYQKKTQLEHILLRPDTYIGSVELVTQQMWVYDEDVGINYREVTFVPGLYKIFDEILVNAADNKQRDPKMSCIRVTIDPENNLISIWNNGKGIPVVEHKVEKMYVPALIFGQLLTSSNYDDDEKKVTGGRNGYGAKLCNIFSTKFTVETASREYKKMFKQTWMDNMGRAGEMELKPFNGEDYTCITFQPDLSKFKMQSLDKDIVALMVRRAYDIAGSTKDVKVFLNGNKLPVKGFRSYVDMYLKDKLDETGNSLKVIHEQVNHRWEVCLTMSEKGFQQISFVNSIATSKGGRHVDYVADQIVTKLVDVVKKKNKGGVAVKAHQVKNHMWIFVNALIENPTFDSQTKENMTLQPKSFGSTCQLSEKFIKAAIGCGIVESILNWVKFKAQVQLNKKCSAVKHNRIKGIPKLDDANDAGGRNSTECTLILTEGDSAKTLAVSGLGVVGRDKYGVFPLRGKILNVREASHKQIMENAEINNIIKIVGLQYKKNYEDEDSLKTLRYGKIMIMTDQDQDGSHIKGLLINFIHHNWPSLLRHRFLEEFITPIVKVSKNKQEMAFYSLPEFEEWKSSTPNHKKWKVKYYKGLGTSTSKEAKEYFADMKRHRIQFKYSGPEDDAAISLAFSKKQIDDRKEWLTNFMEDRRQRKLLGLPEDYLYGQTTTYLTYNDFINKELILFSNSDNERSIPSMVDGLKPGQRKVLFTCFKRNDKREVKVAQLAGSVAEMSSYHHGEMSLMMTIINLAQNFVGSNNLNLLQPIGQFGTRLHGGKDSASPRYIFTMLSSLARLLFPPKDDHTLKFLYDDNQRVEPEWYIPIIPMVLINGAEGIGTGWSCKIPNFDVREIVNNIRRLMDGEEPLPMLPSYKNFKGTIEELAPNQYVISGEVAILNSTTIEISELPVRTWTQTYKEQVLEPMLNGTEKTPPLITDYREYHTDTTVKFVVKMTEEKLAEAERVGLHKVFKLQTSLTCNSMVLFDHVGCLKKYDTVLDILRDFFELRLKYYGLRKEWLLGMLGAESAKLNNQARFILEKIDGKIIIENKPKKELIKVLIQRGYDSDPVKAWKEAQQKVPDEEENEESDNEKETEKSDSVTDSGPTFNYLLDMPLWYLTKEKKDELCRLRNEKEQELDTLKRKSPSDLWKEDLATFIEELEAVEAKEKQDEQVGLPGKGGKAKGKKTQMAEVLPSPRGQRVIPRITIEMKAEAEKKNKKKIKNENTEGSPQEDGVELEGLKQRLEKKQKREPGTKTKKQTTLAFKPIKKGKKRNPWSDSESDRSSDESNFDVPPRETEPRRAATKTKFTMDLDSDEDFSDFDEKTDDEDFVPSDASPPKTKTSPKLSNKELKPQKSVVSDLEADDVKGSVPLSSSPPATHFPDETEITNPVPKKNVTVKKTAAKSQSSTSTTGAKKRAAPKGTKRDPALNSGVSQKPDPAKTKNRRKRKPSTSDDSDSNFEKIVSKAVTSKKSKGESDDFHMDFDSAVAPRAKSVRAKKPIKYLEESDEDDLF
One may read the Km as the concentration of substrate that gives half-maximal velocity. With B1, the Km amounted to 800 µM in data set [12]; 300 µM in data set [13]; 800 µM in data set [14]; 900 µM in data set [15]; 600 µM in [16]; 600 µM in [17]. Further, the Michaelis constant (Km) in [18] came to 700 µM; in [19], 1000 µM; in data set [20], 1600 µM.
